Measured values: ChEMBL document CHEMBL1201862, “PubChem BioAssay data set” (2004)
Activity calls are given as the source filed them.

Experiments:
[1] = molecular target: T1, Zinc finger protein mex-5 (Caenorhabditis elegans, UniProt Q9XUB2); experiment: MEX-5/TCR-2 RNA interaction inhibitors, dose response, biochemical, C. elegans, fluorescence polarization (AID 1960)
T1 sequence (Q9XUB2 whole entry): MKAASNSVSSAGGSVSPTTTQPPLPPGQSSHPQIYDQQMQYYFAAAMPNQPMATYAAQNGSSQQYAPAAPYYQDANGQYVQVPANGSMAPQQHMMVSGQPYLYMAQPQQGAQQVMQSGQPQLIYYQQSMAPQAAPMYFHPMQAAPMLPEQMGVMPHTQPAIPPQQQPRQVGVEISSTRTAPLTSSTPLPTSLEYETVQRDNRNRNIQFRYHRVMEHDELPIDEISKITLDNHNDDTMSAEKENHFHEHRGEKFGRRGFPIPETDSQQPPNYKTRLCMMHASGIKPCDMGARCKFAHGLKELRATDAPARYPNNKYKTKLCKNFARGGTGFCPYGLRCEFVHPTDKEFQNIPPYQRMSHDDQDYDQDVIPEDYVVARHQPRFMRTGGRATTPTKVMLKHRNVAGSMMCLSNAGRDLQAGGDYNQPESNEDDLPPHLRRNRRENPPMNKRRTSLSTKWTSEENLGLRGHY

[2] = molecular target: T2, RNA-binding protein pos-1 (Caenorhabditis elegans, UniProt G5EF15); experiment: inhibitors of POS-1/mex-3 RNA binding, dose response, biochemical, fluorescence polarization (AID 1964);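 also: purified POS-1 fused to maltose binding protein made in E. coli; potency of compounds blocking POS-1 binding to fluorescent RNA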
T2 sequence (G5EF15 whole entry): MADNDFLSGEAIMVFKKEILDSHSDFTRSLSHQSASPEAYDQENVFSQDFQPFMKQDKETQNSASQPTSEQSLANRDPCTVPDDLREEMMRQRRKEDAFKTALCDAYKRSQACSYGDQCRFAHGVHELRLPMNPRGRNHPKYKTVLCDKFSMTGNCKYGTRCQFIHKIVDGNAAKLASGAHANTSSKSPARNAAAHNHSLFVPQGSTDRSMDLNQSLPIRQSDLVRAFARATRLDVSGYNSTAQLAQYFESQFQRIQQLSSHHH

Estrogen receptor beta = Estrogen receptor beta (Homo sapiens, UniProt Q92731);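 also: recombinant ER-beta bound to coactivator SRC1 peptide in presence of estradiol agonist; inhibitors block coactivator peptide binding and lower the FRET signal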
Chain of Estrogen receptor beta (Q92731 whole entry, the tested form may be a part): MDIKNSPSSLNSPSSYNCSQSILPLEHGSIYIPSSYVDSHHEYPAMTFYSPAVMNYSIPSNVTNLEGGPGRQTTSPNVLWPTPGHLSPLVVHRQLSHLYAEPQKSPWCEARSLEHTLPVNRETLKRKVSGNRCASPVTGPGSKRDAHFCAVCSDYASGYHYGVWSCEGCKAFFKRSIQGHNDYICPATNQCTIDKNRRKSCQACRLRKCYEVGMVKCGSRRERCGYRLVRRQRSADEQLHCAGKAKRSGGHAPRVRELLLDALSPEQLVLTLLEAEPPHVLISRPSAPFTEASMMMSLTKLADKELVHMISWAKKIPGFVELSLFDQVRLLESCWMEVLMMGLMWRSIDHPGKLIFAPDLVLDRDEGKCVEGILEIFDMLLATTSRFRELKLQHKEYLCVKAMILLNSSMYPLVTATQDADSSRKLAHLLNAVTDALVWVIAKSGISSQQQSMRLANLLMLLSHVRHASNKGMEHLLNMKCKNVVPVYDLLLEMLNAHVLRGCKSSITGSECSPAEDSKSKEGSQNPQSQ

Estrogen receptor = molecular target: T3, Estrogen receptor (Homo sapiens, UniProt P03372); experiment: potentiators of ERα–SRC-1 coactivator binding, dose response, biochemical, TR-FRET, ERα LBD (AID 737)
T3 sequence (P03372 whole entry): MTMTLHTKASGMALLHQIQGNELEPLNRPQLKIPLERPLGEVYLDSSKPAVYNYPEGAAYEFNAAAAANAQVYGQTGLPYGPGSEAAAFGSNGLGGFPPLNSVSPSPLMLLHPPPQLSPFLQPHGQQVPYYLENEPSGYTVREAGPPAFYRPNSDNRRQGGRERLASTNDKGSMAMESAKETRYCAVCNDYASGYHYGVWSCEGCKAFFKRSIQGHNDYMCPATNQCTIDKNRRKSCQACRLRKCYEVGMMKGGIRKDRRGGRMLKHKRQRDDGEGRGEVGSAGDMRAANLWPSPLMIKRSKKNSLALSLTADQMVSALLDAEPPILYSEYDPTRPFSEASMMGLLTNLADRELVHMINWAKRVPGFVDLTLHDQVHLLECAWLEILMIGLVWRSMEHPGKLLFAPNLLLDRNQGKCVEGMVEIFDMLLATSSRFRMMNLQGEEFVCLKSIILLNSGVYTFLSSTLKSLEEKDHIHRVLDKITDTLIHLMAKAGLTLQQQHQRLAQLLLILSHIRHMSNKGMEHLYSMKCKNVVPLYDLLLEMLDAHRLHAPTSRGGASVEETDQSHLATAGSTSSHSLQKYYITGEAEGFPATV

[3] = HEp-2 cell cytotoxicity, dose response, cytotoxicity control for RSV inhibitor project, HTS (AID 2410); assay type: functional; conditions: human respiratory syncytial virus
[4] = inhibitors of SNCA 5'UTR-driven reporter translation, confirmation, H4 neuroglioma cells, luminescence (AID 1988); assay type: functional, cell-based
[5] = Luminescence Cell-Based Dose Response HTS to Identify Inhibitors of 5'UTR Stem-Loop Driven Prion Protein mRNA Translation in H4 Neuroglioblastoma Cells. [Related pubchem assays: 1827 (Project Summary), 1813 (Primary HTS)]; assay type: functional
[6] = inhibitors of firefly luciferase expression or activity, dose response, H4 neuroglioma cells, luminescence (AID 1990); assay type: functional, cell-based
[7] = Luminescent dose response cell-based high throughput screening assay for inhibitors of the Janus kinase 2 mutant JAK2V617F. [Related pubchem assays: 1446 (Primary screen.), 1521 (Confirmation assay.), 1486 (Counter screen.)]; assay type: functional
[8] = molecular target: T4, Heat shock factor protein 1 (Mus musculus, UniProt P38532); experiment: HSF1 potentiators in luciferase reporter cells, confirmation, cell-based, NIH3T3, luminescence, dose retest (AID 435004); assay type: functional;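 also: stress induced by proteasome inhibitor MG132 added 30 min after compound; luciferase reporter driven by HSF1 response element in NIH3T3 cells; actives raise luminescence as potentiators of the MG132 stress response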
T4 sequence (P38532 whole entry): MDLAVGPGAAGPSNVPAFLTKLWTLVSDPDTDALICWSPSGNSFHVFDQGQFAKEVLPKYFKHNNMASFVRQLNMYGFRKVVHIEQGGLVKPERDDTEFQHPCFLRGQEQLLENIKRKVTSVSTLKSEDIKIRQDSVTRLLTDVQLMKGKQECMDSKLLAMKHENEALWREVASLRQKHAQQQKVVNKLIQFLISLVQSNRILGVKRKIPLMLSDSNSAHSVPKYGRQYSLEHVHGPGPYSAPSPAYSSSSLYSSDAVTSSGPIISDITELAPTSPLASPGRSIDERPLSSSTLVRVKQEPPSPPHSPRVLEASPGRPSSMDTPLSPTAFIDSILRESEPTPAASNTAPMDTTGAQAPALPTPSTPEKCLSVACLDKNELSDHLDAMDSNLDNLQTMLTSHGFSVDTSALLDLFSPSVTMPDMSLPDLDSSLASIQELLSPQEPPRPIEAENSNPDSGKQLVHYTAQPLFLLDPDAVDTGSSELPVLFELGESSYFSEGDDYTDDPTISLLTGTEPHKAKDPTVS

[9] = M. tuberculosis H37Rv growth inhibitors, H37Rv strain (AID 1626); assay type: functional
[10] = molecular target: 5-hydroxytryptamine receptor 1A (Homo sapiens, UniProt P08908); assay type: functional
Chain of 5-hydroxytryptamine receptor 1A (P08908 whole entry): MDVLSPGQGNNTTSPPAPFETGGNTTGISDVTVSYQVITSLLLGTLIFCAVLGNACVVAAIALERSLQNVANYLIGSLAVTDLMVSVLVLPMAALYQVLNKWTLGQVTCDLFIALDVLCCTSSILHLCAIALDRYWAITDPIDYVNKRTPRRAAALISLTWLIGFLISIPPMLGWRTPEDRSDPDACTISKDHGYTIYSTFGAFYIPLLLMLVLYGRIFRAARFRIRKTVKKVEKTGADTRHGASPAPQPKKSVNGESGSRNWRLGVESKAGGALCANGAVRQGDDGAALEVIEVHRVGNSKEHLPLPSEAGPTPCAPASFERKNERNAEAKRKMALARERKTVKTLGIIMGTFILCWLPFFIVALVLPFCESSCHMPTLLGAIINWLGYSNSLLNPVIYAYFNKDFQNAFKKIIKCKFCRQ

[11] = P. falciparum Dd2 growth inhibitors, dose response, SYBR Green, dry powder samples (AID 1159566); assay type: functional, cell-based;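 also: potency for growth inhibition with lower SYBR green DNA signal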
[12] = HepG2 cell cytotoxicity, dose response, cytotoxicity control, plate reader, dry powder samples (AID 1159569); assay type: functional, cell-based;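 also: inhibitor potency with signal falling toward the positive control level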
[13] = Plasmodium falciparum Dd2 Sybr green parasite growth Measured in Cell-Based and Microorganism Combination System Using Plate Reader - 2153-01_Inhibitor_Dose_DryPowder_Activity_Set3.; assay type: functional
[14] = P. falciparum 3D7-ScDHODH growth inhibitors, dose response, SYBR Green, dry powder samples (AID 1159570); assay type: functional, cell-based;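 also: parasite growth measured after 72 hours of compound exposure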
[15] = P. falciparum ATP4 D1247Y mutant growth inhibitors, dose response, NITD609-resistant line, SYBR Green, dry powder (AID 1159571); assay type: functional, cell-based;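 also: parasites synchronized at ring stage by sorbitol before testing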
[16] = P. falciparum Dd2 growth inhibitors, dose response, SYBR Green, cherry-picked samples (AID 1159567); assay type: functional, cell-based
Coagulation factor XII = molecular target: T5, Coagulation factor XII (Homo sapiens, UniProt P00748); assay type: functional;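 also: activated factor XIIa alpha cleaving a fluorogenic AMC peptide substrate; inhibitor potency from loss of enzyme activity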
T5 sequence (P00748 whole entry): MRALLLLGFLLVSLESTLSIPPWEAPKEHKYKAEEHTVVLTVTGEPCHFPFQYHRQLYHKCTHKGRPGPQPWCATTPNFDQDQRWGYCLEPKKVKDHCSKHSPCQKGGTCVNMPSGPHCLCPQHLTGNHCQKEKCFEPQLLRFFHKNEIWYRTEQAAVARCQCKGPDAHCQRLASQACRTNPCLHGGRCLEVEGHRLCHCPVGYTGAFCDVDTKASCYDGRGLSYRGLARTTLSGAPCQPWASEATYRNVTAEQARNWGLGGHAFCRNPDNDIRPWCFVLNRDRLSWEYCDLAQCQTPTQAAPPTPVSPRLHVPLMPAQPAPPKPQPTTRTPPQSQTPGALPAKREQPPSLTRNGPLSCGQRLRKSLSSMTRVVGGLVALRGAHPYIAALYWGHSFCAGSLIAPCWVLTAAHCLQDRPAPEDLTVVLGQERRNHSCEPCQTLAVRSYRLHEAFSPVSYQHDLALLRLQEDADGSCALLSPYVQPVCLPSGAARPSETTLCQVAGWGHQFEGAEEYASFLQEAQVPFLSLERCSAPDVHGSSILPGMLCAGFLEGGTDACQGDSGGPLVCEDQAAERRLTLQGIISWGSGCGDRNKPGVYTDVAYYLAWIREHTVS

Prothrombin = Prothrombin (Homo sapiens, UniProt P00734); experiment: Thrombin 1536 HTS Dose Response Confirmation. [Related pubchem assays: 1046 (Thrombin 1536 HTS; hits were confirmed in this assay)]; assay type: functional
[17] = enhancers of respiration in Yfh1-depleted yeast, dose response, Friedreich's ataxia, plus single-dose screen (AID 1465); assay type: functional;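 also: yeast depleted of Yfh1p frataxin homolog grown on glycerol needing respiration; WST-1 tetrazolium dye reduction as measure of cellular dehydrogenase metabolic activity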

Q: Which results are given for `ON=C1/C(=N\O)CC2(C/C1=N/O)OCCO2`?
A: EC50 [1]: 13 µM (active); EC50 [2]: > 300 µM (not active); IC50 (Estrogen receptor beta): 14.1 µM (active)

Q: With `O=C(Cc1ccccc1)Nc1ccc2oc(-c3cccnc3)nc2c1` as the compound, how does the EC50 (Estrogen receptor) read?
A: Its EC50 is 21.2 µM (active).

Q: For `O=C(c1cc2nc(-c3ccccc3)cc(-c3ccccc3)n2n1)N1CCC2(CC1)OCCO2`, which CC50 [3] is on record?
A: Its CC50 is 28.9 µM (active).

Q: And the EC50 [4]?
A: Its EC50 is 115 µM (active).

Q: And the EC50 [5]?
A: The EC50 was 12.9 µM (active).

Q: What about the EC50 [6] of the same compound?
A: The EC50 was 24.2 µM (active).

Q: What about the IC50 (cells) of the same compound?
A: The IC50 was 3.6 µM (active).

Q: With `Cc1cc(SCC(=O)N/N=C/c2ccc(O)c(O)c2)c(C)cc1Br` as the compound, how does the IC50 [7] read?
A: Its IC50 is 1.65 µM (active).

Q: What about the EC50 [8] of the same compound?
A: Its EC50 is > 260 µM (inactive).

Q: With `Cc1cccc(Oc2ccc(N)cc2)c1` as the compound, how does the IC50 [9] read?
A: The IC50 was > 100 µM (active).

Q: With `NCCc1c[nH]c2ccc(F)cc12` as the compound, how does the EC50 [10] read?
A: The EC50 was 2.22 µM (active).

Q: Which AC50 [11] does the source give for `CCCC(=O)Nc1ccc2c(c1)OC[C@@H](C)N(Cc1ccc(F)cc1)C[C@@H](C)[C@H](OC)CN(C)C2=O` here?
A: Its AC50 is 0.753 µM (active).

Q: And the AC50 [12]?
A: The AC50 was 75.8 µM (active).

Q: And the AC50 [13]?
A: The AC50 was 2.51 µM (active).

Q: What about the AC50 [14] of the same compound?
A: Its AC50 is 9.67 µM (active).

Q: And the AC50 [15]?
A: The AC50 was 2.44 µM (active).

Q: What about the AC50 [16] of the same compound?
A: The AC50 was 1.92 µM (active).

Q: For `COc1cccc(NC(=S)Nc2ccc(Br)cc2Cl)c1`, which IC50 (Coagulation factor XII) is on record?
A: Its IC50 is > 50 µM (inactive).

Q: And the IC50 (Prothrombin)?
A: The IC50 was > 50 µM (not active).

Q: For `COC(=O)C1=C(C)N(Cc2ccccc2)C(=O)N[C@H]1c1ccccc1`, which CC50 [3] is on record?
A: The CC50 was 33.9 µM (active).

Q: And the IC50 (cells)?
A: Its IC50 is 5.02 µM (active).

Q: With `C/C(=C\c1ccccc1)C(=O)n1nnc2ccccc21` as the compound, how does the IC50 (Prothrombin) read?
A: Its IC50 is 0.846 µM (active).

Q: Which EC50 [17] does the source give for `CC(C(=O)O)N1C(=O)/C(=C/c2cccn2C)SC1=S` (stereo not given) here?
A: Its EC50 is > 100 µM (active).
